Reference: PubChem BioAssay AID1963968 (Molecular Pharmacology Branch, DTP, NCI, 2024)
pIC50: −log10 of the molar value. “And” between values parts separate entries of the source, which are not always exact repeats. Equal values may be shown once.

System: 945468-187-T-J3-PDC spheroids with HUVEC/MSC, viability
Assay: Anticancer human tumor 945468-187-T-J3-PDC patient-derived rectal carcinoma cell line growth inhibition [PI3K]
Conditions: for viability, T/C: stronger effect = lower value
Description: Combinatorial screen of targeted agents with the PI3K inhibitors inavolisib, alpelisib, duvelisib, and copanlisib in multi-cell type tumor spheroids
A high-throughput screen of multi-cell type tumor spheroids was designed to identify active combinations of targeted small molecules and PI3K pathway inhibitors. Complex spheroids include a stromal component modeled by human endothelial cells (HUVEC) and fibroblasts modeled by human mesenchymal stem cells (MSCs). The concentration ranges selected for each drug and investigational agent were based upon clinically achievable concentrations if the clinical Cmax of the agent was known.
Compounds. The drugs and investigational agents: inavolisib (NSC800729), alpelisib (NSC765974), duvelisib (NSC772469), copanlisib (NSC816437), ipatasertib (NSC767898), afuresertib (NSC778305), talazoparib (NSC767125), sapanisertib (NSC764658), selumetinib (NSC741078), tovorafenib (DAY101, NSC766906), vemurafenib (NSC761431), ravoxertinib (NSC781343), sotorasib (NSC818433), MRTX1133 (NSC 836407), abemaciclib (NSC 768073), palbociclib (NSC758247), venetoclax (NSC 766270), SY5609 (NSC837396), enzalutamide (NSC755605), and darolutamide (NSC825331), were obtained from the National Cancer Institute (NCI) Developmental Therapeutics Program Chemical Repository. The FDA-approved anticancer drug set is available from the NCI Developmental Therapeutics Program. […] The stock solutions were prepared in dimethyl sulfoxide (DMSO, Sigma-Aldrich, St. Louis, MO, cat. D2650) at 800-fold the tested concentration and stored at -70 degrees C prior to their use. All drugs and investigational agents were tested over a range starting from a high concentration at or near the clinical Cmax and decreasing in half-log increments. If the clinical Cmax for an agent had not been determined, the highest concentration tested was 10 microM.
Cell Culture. All cells were maintained in an incubator at 37 degrees C and 5% CO2 with 95% humidity. The PDC lines were cultured according to standard operating procedures established by the NCI PDMR (https://pdmr.cancer.gov/sops/default.htm). All PDCs were thawed and cultured in Matrigel-coated flasks prepared with a working solution of 1X Ham's F-12 nutrient mix, without supplementation (Invitrogen, Waltham, MA, cat. 11765054), 100 U/mL penicillin-streptomycin (Invitrogen, cat. 15140122), and 2.5% Matrigel (Corning Inc., Corning, NY, cat. 354248) for the first three passages. The 354836-022-R-J1-PDC, 475296-252-R-J1-PDC, and 997726-040-R-J2-PDC lines were cultured in 6A media, which includes advanced DMEM/F-12 (Thermo Fisher Scientific, cat. 12634028), 10 mM HEPES (Thermo Fisher Scientific, cat. 15630080), 1X GlutaMAX supplement (Thermo Fisher Scientific, cat. 35050061), 0.1 mg/mL primocin (InvivoGen, San Diego, CA, cat. ant-pm-2), 10% defined fetal bovine serum, heat inactivated (HyClone Laboratories Inc., Logan, UT, cat. SH30070.03HI), 50% L-WRN conditioned media (ATCC, cat. CRL-3276), 1.25 mM N-Acetyl-L-cysteine (Sigma-Aldrich, cat. A9165), 10 mM nicotinamide (Sigma-Aldrich, cat. N0636), 1X B-27 supplement (Thermo Fisher Scientific, cat. 17504044), 1X N-2 supplement (Thermo Fisher Scientific, cat. 17502048), and 10 microM Y-27632 dihydrochloride (Tocris Bioscience, Bristol, United Kingdom, cat. 1254). The 624824-186-R-J2-PDC line was cultured in 6C/Colon 1B media, which includes all 6A media components plus 50 ng/mL human EGF recombinant protein (Thermo Fisher Scientific, cat. PHG0311). […]

[1] = curve of first compound, second compound 0.0316 µM
[2] = curve of first compound, second compound 0.1 µM
[3] = curve of first compound, second compound 0.316 µM
[4] = curve of first compound, second compound 1 µM
[5] = second compound 0.0316 µM, first compound 0.0316 µM
[6] = second compound 0.0316 µM, first compound 0.1 µM
[7] = second compound 0.0316 µM, first compound 0.316 µM
[8] = second compound 0.0316 µM, first compound 1 µM
[9] = second compound 0.0316 µM, first compound 3.16 µM
[10] = second compound 0.0316 µM, first compound 10 µM
[11] = second compound 0.1 µM, first compound 0.0316 µM
[12] = second compound 0.1 µM, first compound 0.1 µM
[13] = second compound 0.1 µM, first compound 0.316 µM
[14] = second compound 0.1 µM, first compound 1 µM
[15] = second compound 0.1 µM, first compound 3.16 µM
[16] = second compound 0.1 µM, first compound 10 µM
[17] = second compound 0.316 µM, first compound 0.0316 µM
[18] = second compound 0.316 µM, first compound 0.1 µM
[19] = second compound 0.316 µM, first compound 0.316 µM
[20] = second compound 0.316 µM, first compound 1 µM
[21] = second compound 0.316 µM, first compound 3.16 µM
[22] = second compound 0.316 µM, first compound 10 µM
[23] = second compound 1 µM, first compound 0.0316 µM
[24] = second compound 1 µM, first compound 0.1 µM
[25] = second compound 1 µM, first compound 0.316 µM
[26] = second compound 1 µM, first compound 1 µM
[27] = second compound 1 µM, first compound 3.16 µM
[28] = second compound 1 µM, first compound 10 µM
[29] = curve of first compound, second compound 0.00316 µM
[30] = curve of first compound, second compound 0.01 µM
[31] = second compound 0.00316 µM, first compound 0.0316 µM
[32] = second compound 0.00316 µM, first compound 0.1 µM
[33] = second compound 0.00316 µM, first compound 0.316 µM
[34] = second compound 0.00316 µM, first compound 1 µM
[35] = second compound 0.00316 µM, first compound 3.16 µM
[36] = second compound 0.00316 µM, first compound 10 µM
[37] = second compound 0.01 µM, first compound 0.0316 µM
[38] = second compound 0.01 µM, first compound 0.1 µM
[39] = second compound 0.01 µM, first compound 0.316 µM
[40] = second compound 0.01 µM, first compound 1 µM
[41] = second compound 0.01 µM, first compound 3.16 µM
[42] = second compound 0.01 µM, first compound 10 µM
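Also: spheroids exposed to agents for 7 days before viability read.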
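For viability, T/C in this document: 100% = DMSO vehicle control viability.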

SMILES: CCCS(=O)(=O)Nc1ccc(F)c(C(=O)c2c[nH]c3ncc(-c4ccc(Cl)cc4)cc23)c1F + Cc1nc(NC(=O)N2CCCC2C(N)=O)sc1-c1ccnc(C(C)(C)C(F)(F)F)c1
- pIC50 [1]: 5.20
- pIC50 [2]: 5.15
- pIC50 [3]: 5.09
- pIC50 [4]: < 5.00
- pIC50 (curve of first compound, second compound 3.16 µM): 5.14
- pIC50 (curve of first compound, second compound 10 µM): 5.74
- viability, T/C [5]: 99.8%
- viability, T/C [6]: 109%
- viability, T/C [7]: 87.1%
- viability, T/C [8]: 103%
- viability, T/C [9]: 107%
- viability, T/C [10]: 17.1%
- viability, T/C [11]: 111%
- viability, T/C [12]: 98%
- viability, T/C [13]: 93.3%
- viability, T/C [14]: 105%
- viability, T/C [15]: 107%
- viability, T/C [16]: 26.9%
- viability, T/C [17]: 109%
- viability, T/C [18]: 101%
- viability, T/C [19]: 100%
- viability, T/C [20]: 119%
- viability, T/C [21]: 108%
- viability, T/C [22]: 37.9%
- viability, T/C [23]: 119%
- viability, T/C [24]: 116%
- viability, T/C [25]: 112%
- viability, T/C [26]: 114%
- viability, T/C [27]: 104%
- viability, T/C [28]: 56.9%
- viability, T/C (second compound 3.16 µM, first compound 0.0316 µM): 106%
- viability, T/C (second compound 3.16 µM, first compound 0.1 µM): 110%
- viability, T/C (second compound 3.16 µM, first compound 0.316 µM): 101%
- viability, T/C (second compound 3.16 µM, first compound 1 µM): 99.7%
- viability, T/C (second compound 3.16 µM, first compound 3.16 µM): 96.3%
- viability, T/C (second compound 3.16 µM, first compound 10 µM): 31.2%
- viability, T/C (second compound 10 µM, first compound 0.0316 µM): 67.1%
- viability, T/C (second compound 10 µM, first compound 0.1 µM): 52.8%
- viability, T/C (second compound 10 µM, first compound 0.316 µM): 53.3%
- viability, T/C (second compound 10 µM, first compound 1 µM): 64.9%
- viability, T/C (second compound 10 µM, first compound 3.16 µM): 41.5%
- viability, T/C (second compound 10 µM, first compound 10 µM): 5.18%

SMILES: CC(C)NCC(C(=O)N1CCN(c2ncnc3c2C(C)CC3O)CC1)c1ccc(Cl)cc1 (configuration not stated) + COc1c(OCCCN2CCOCC2)ccc2c3n(c(=NC(=O)c4cnc(N)nc4)nc12)CCN3
- pIC50 [29]: 5.43
- pIC50 [30]: 5.43
- pIC50 [1]: 5.73
- pIC50 [2]: > 7.50
- pIC50 [3]: > 7.50
- pIC50 [4]: > 7.50
- viability, T/C [31]: 94.2%
- viability, T/C [32]: 83.3%
- viability, T/C [33]: 88.8%
- viability, T/C [34]: 70.6%
- viability, T/C [35]: 52.1%
- viability, T/C [36]: 39.4%
- viability, T/C [37]: 92.6%
- viability, T/C [38]: 80.9%
- viability, T/C [39]: 89.3%
- viability, T/C [40]: 81.7%
- viability, T/C [41]: 53.8%
- viability, T/C [42]: 28.2%
- viability, T/C [5]: 79%
- viability, T/C [6]: 84.4%
- viability, T/C [7]: 66.7%
- viability, T/C [8]: 71.8%
- viability, T/C [9]: 31.1%
- viability, T/C [10]: 25.8%
- viability, T/C [11]: 39%
- viability, T/C [12]: 45.5%
- viability, T/C [13]: 43.4%
- viability, T/C [14]: 27.9%
- viability, T/C [15]: 23.5%
- viability, T/C [16]: 18.6%
- viability, T/C [17]: 19.8%
- viability, T/C [18]: 19.3%
- viability, T/C [19]: 17.6%
- viability, T/C [20]: 18%
- viability, T/C [21]: 19.5%
- viability, T/C [22]: 13.3%
- viability, T/C [23]: 18.6%
- viability, T/C [24]: 13.7%
- viability, T/C [25]: 15.8%
- viability, T/C [26]: 13.6%
- viability, T/C [27]: 19.7%
- viability, T/C [28]: 11.8%

SMILES: CNC(=O)c1ccc(N2C(=S)N(c3ccc(C#N)c(C(F)(F)F)c3)C(=O)C2(C)C)cc1F
- viability, T/C (compound 0.0316 µM): 100% (2×) and 113% and 95%
- viability, T/C (compound 0.1 µM): 108% [middle of 4 runs]
- viability, T/C (compound 0.316 µM): 104% [middle of 4 runs]
- viability, T/C (compound 3.16 µM): 113% (2×) and 102% and 121%
- viability, T/C (compound 10 µM): 109% [middle of 4 runs]
- pIC50 (curve of compound): < 5.00

SMILES: C#Cc1c(F)ccc2cc(O)cc(-c3ncc4c(N5CC6CCC(C5)N6)nc(OCC56CCCN5CC(F)C6)nc4c3F)c12 (configuration not stated) + CC(Nc1ccc2c(c1)OCCn1cc(N3C(=O)OCC3C(F)F)nc1-2)C(N)=O
- pIC50 [29]: < 5.00
- pIC50 [30]: < 5.00
- pIC50 [1]: < 5.00
- pIC50 [2]: < 5.00
- pIC50 [3]: < 5.00
- pIC50 [4]: 5.56
- viability, T/C [31]: 94%
- viability, T/C [32]: 103%
- viability, T/C [33]: 94%
- viability, T/C [34]: 114%
- viability, T/C [35]: 120%
- viability, T/C [36]: 113%
- viability, T/C [37]: 94.1%
- viability, T/C [38]: 100%
- viability, T/C [39]: 94.6%
- viability, T/C [40]: 115%
- viability, T/C [41]: 138%
- viability, T/C [42]: 102%
- viability, T/C [5]: 100%
- viability, T/C [6]: 104%
- viability, T/C [7]: 99.8%
- viability, T/C [8]: 118%
- viability, T/C [9]: 115%
- viability, T/C [10]: 105%
- viability, T/C [11]: 122%
- viability, T/C [12]: 112%
- viability, T/C [13]: 97%
- viability, T/C [14]: 117%
- viability, T/C [15]: 115%
- viability, T/C [16]: 103%
- viability, T/C [17]: 111%
- viability, T/C [18]: 99.6%
- viability, T/C [19]: 91.3%
- viability, T/C [20]: 106%
- viability, T/C [21]: 91%
- viability, T/C [22]: 56.1%
- viability, T/C [23]: 76.2%
- viability, T/C [24]: 73.2%
- viability, T/C [25]: 64.9%
- viability, T/C [26]: 70.2%
- viability, T/C [27]: 47.3%
- viability, T/C [28]: 29%

SMILES: CCCS(=O)(=O)Nc1ccc(F)c(C(=O)c2c[nH]c3ncc(-c4ccc(Cl)cc4)cc23)c1F
- viability, T/C (compound 0.0316 µM): 105% [middle of 4 runs]
- viability, T/C (compound 0.1 µM): 97.1% [middle of 4 runs]
- viability, T/C (compound 1 µM): 102% [middle of 4 runs]
- viability, T/C (compound 3.16 µM): 103% [middle of 4 runs]
- IC50 (curve of compound): 6.88 µM [middle of 4 runs]
